Like-named read-outs stand apart in the source and are kept apart here. Positions of bridges follow the written chain, without caps; N, C: chain ends. Residues, ends and D or L forms follow the SMILES beside them.
Experiments:
Format in all cases: cell-based
[1] = system: IL-2 secretion from T cells in human whole blood; details: read-out: WB (IL-2) IC50 (nM, Avg)
hKv1.3 = hKv1.3 (Homo sapiens, UniProt P22001); assay: cell-based; details: Kv1.3 (IWQ) IC50 (nM, Avg)
[2] = system: IFN-g secretion from T cells in human whole blood
[3] = read-out: WB (IFNg) IC50 (nM, Avg)

Sequence of hKv1.3 (P22001 whole entry): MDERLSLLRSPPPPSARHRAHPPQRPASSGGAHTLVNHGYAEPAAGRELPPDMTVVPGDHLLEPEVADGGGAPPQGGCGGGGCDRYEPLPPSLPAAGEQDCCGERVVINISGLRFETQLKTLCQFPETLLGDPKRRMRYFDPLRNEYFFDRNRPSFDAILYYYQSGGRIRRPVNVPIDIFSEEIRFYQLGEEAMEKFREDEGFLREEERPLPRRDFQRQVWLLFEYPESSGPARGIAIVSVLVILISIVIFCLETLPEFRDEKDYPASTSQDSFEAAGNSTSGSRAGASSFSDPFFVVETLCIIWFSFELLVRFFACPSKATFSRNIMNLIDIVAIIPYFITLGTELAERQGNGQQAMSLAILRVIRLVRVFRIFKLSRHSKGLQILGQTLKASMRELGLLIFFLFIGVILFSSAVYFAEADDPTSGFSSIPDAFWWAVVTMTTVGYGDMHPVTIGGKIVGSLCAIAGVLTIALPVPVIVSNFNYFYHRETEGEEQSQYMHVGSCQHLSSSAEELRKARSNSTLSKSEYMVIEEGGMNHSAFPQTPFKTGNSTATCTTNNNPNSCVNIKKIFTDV

For `CC[C@H](C)[C@@H]1NC(=O)[C@@H](NC(=O)[C@H](CO)NC(=O)[C@@H](N)CCCNC(=N)N)CSSC[C@@H](C(=O)O)NC(=O)[C@H]([C@@H](C)O)NC(=O)CNC(=O)[C@@H]2CSSC[C@@H]3NC(=O)[C@H](CCC(N)=O)NC(=O)[C@H](CCCNC(=N)N)NC(=O)[C@H](C)NC(=O)[C@H]([C@@H](C)O)NC(=O)[C@H](CSSC[C@H](NC(=O)[C@H](Cc4ccccc4)NC(=O)[C@H](CO)NC(=O)[C@H](CC(C)C)NC(=O)[C@H](CCCNC(=N)N)NC(=O)[C@H](Cc4ccc(O)cc4)NC(=O)[C@H](CCCCN)NC(=O)[C@H](CCSC)NC(=O)[C@H](CO)NC(=O)[C@H](Cc4c[nH]cn4)NC(=O)[C@H](CCCCN)NC3=O)C(=O)N[C@@H](CCCNC(=N)N)C(=O)N[C@@H](CCCCN)C(=O)N[C@@H]([C@@H](C)O)C(=O)N2)NC(=O)[C@H](CCCNC(=N)N)NC(=O)[C@H](CO)NC(=O)[C@H](CCCCN)NC(=O)[C@@H]2CCCN2C(=O)[C@H]([C@@H](C)CC)NC(=O)[C@H]([C@@H](C)O)NC(=O)[C@H](CC(=O)O)NC1=O` [[Arg15]ShK], the IC50 [1] was 0.162 nM, the IC50 (hKv1.3) was 0.088 nM and the IC50 [2, 3] was 0.204 nM.
With `CC[C@H](C)[C@@H]1NC(=O)[C@@H](NC(=O)[C@H](CO)NC(=O)[C@@H](N)CCCNC(=N)N)CSSC[C@@H](C(=O)O)NC(=O)[C@H]([C@@H](C)O)NC(=O)CNC(=O)[C@@H]2CSSC[C@@H]3NC(=O)[C@H](CCCCN)NC(=O)[C@H](Cc4ccccc4)NC(=O)[C@H](C)NC(=O)[C@H]([C@@H](C)O)NC(=O)[C@H](CSSC[C@H](NC(=O)[C@H](Cc4ccccc4)NC(=O)[C@H](CO)NC(=O)[C@H](CC(C)C)NC(=O)[C@H](CCCNC(=N)N)NC(=O)[C@H](Cc4ccc(O)cc4)NC(=O)[C@H](CCCCN)NC(=O)[C@H](C)NC(=O)[C@H](CO)NC(=O)[C@H](Cc4c[nH]cn4)NC(=O)[C@H](CCCCN)NC3=O)C(=O)N[C@@H](CCCNC(=N)N)C(=O)N[C@@H](CCCCN)C(=O)N[C@@H]([C@@H](C)O)C(=O)N2)NC(=O)[C@H](CCCNC(=N)N)NC(=O)[C@H](CO)NC(=O)[C@H](CCCCN)NC(=O)[C@@H]2CCCN2C(=O)[C@H]([C@@H](C)CC)NC(=O)[C@H]([C@@H](C)O)NC(=O)[C@H](CC(=O)O)NC1=O` [[Lys16,A1a21]ShK] the IC50 [1] was 0.872 nM, the IC50 (hKv1.3) was 0.076 nM and the IC50 [2, 3] was 1.33 nM.
`CCCC[C@@H]1NC(=O)[C@H](CO)NC(=O)[C@H](Cc2c[nH]cn2)NC(=O)[C@H](CCCCN)NC(=O)[C@@H]2CSSC[C@@H]3NC(=O)[C@H]([C@@H](C)O)NC(=O)[C@H](CCCCN)NC(=O)[C@H](CCCNC(=N)N)NC(=O)[C@H](CSSC[C@H](NC(=O)[C@H](CCCNC(=N)N)NC(=O)[C@H](CO)NC(=O)[C@H](CCC(=O)O)NC(=O)[C@@H]4CCCN4C(=O)[C@H]([C@@H](C)CC)NC(=O)[C@H]([C@@H](C)O)NC(=O)[C@H](CC(=O)O)NC(=O)[C@H]([C@@H](C)CC)NC(=O)[C@@H](NC(=O)[C@H](CO)NC(=O)[C@@H](N)CCCNC(=N)N)CSSC[C@@H](C(N)=O)NC(=O)[C@H]([C@@H](C)O)NC(=O)CNC3=O)C(=O)N[C@@H]([C@@H](C)O)C(=O)N[C@@H](C)C(=O)N[C@@H](Cc3ccccc3)C(=O)N[C@@H](CCCCN)C(=O)N2)NC(=O)[C@H](Cc2ccccc2)NC(=O)[C@H](CO)NC(=O)[C@H](CC(C)C)NC(=O)[C@H](CCCNC(=N)N)NC(=O)[C@H](Cc2ccc(O)cc2)NC(=O)[C@H](CCCCN)NC1=O` [[Glu9, Lys16,Nle21]ShK-amide] was tested, and the IC50 [1] was 0.257 nM, the IC50 (hKv1.3) was 0.263 nM and the IC50 [2, 3] was 0.342 nM.
`CC[C@H](C)[C@@H]1NC(=O)[C@@H](NC(=O)[C@H](CO)NC(=O)[C@@H](N)CCCNC(=N)N)CSSC[C@@H](C(=O)O)NC(=O)[C@H]([C@@H](C)O)NC(=O)CNC(=O)[C@@H]2CSSC[C@@H]3NC(=O)[C@H](CCC(N)=O)NC(=O)[C@H](Cc4ccccc4)NC(=O)[C@H](C)NC(=O)[C@H]([C@@H](C)O)NC(=O)[C@H](CSSC[C@H](NC(=O)[C@H](Cc4ccccc4)NC(=O)[C@H](CO)NC(=O)[C@H](CC(C)C)NC(=O)[C@H](CCCNC(=N)N)NC(=O)[C@H](Cc4ccc(O)cc4)NC(=O)[C@H](CCCCN)NC(=O)[C@H](CCSC)NC(=O)[C@H](CO)NC(=O)[C@H](Cc4c[nH]cn4)NC(=O)[C@H](CCCCN)NC3=O)C(=O)N[C@@H](CCCNC(=N)N)C(=O)N[C@@H](CCCCN)C(=O)N[C@@H]([C@@H](C)O)C(=O)N2)NC(=O)[C@H](CCCNC(=N)N)NC(=O)[C@H](CO)NC(=O)[C@H](CCCCN)NC(=O)[C@@H]2CCCN2C(=O)[C@H]([C@@H](C)CC)NC(=O)[C@H](CCC(=O)O)NC(=O)[C@H](CC(=O)O)NC1=O` [[Glu6]ShK] was tested, and the IC50 [1] was 0.073 nM, the IC50 (hKv1.3) was 0.17 nM and the IC50 ([2]; read-out: WB (IFNg) IC5- (nM, Avg)) was 0.109 nM.
Molecule `CC[C@H](C)[C@@H]1NC(=O)[C@H]([C@@H](C)O)NC(=O)[C@H](CC(=O)O)NC(=O)[C@H](CCC(=O)O)NC(=O)[C@@H](NC(=O)[C@H](CO)NC(=O)[C@@H](N)CCCNC(=N)N)CSSC[C@@H](C(N)=O)NC(=O)[C@H]([C@@H](C)O)NC(=O)CNC(=O)[C@@H]2CSSC[C@@H]3NC(=O)[C@H](CCCCN)NC(=O)[C@H](Cc4ccccc4)NC(=O)[C@H](C)NC(=O)[C@H]([C@@H](C)O)NC(=O)[C@H](CSSC[C@H](NC(=O)[C@H](Cc4ccccc4)NC(=O)[C@H](CO)NC(=O)[C@H](CC(C)C)NC(=O)[C@H](CCCNC(=N)N)NC(=O)[C@H](Cc4ccc(O)cc4)NC(=O)[C@H](CCCCN)NC(=O)[C@H](CCSC)NC(=O)[C@H](CO)NC(=O)[C@H](Cc4c[nH]cn4)NC(=O)[C@H](CCCNC(=N)N)NC3=O)C(=O)N[C@@H](CCCCN)C(=O)N[C@@H](CCCNC(=N)N)C(=O)N[C@@H]([C@@H](C)O)C(=O)N2)NC(=O)[C@H](CCCNC(=N)N)NC(=O)[C@H](CO)NC(=O)[C@H](CCC(=O)O)NC(=O)[C@@H]2CCCN2C1=O` [[Glu4,9;Lys16,29;Arg18,30]ShK-amide] (H-RSCEDTIPESRCTAFKCRHSMKYRLSFCKRTCGTC-NH2; disulfide 3-35, 12-28, 17-32) has an IC50 [1] of 0.151 nM, an IC50 (hKv1.3) of 0.062 nM and an IC50 [2, 3] of 0.345 nM.
In the case of `CCC[C@@H]1NC(=O)[C@H](CO)NC(=O)[C@H](Cc2c[nH]cn2)NC(=O)[C@H](CCCCN)NC(=O)[C@@H]2CSSC[C@@H]3NC(=O)[C@H]([C@@H](C)O)NC(=O)[C@H](CCCCN)NC(=O)[C@H](CCCNC(=N)N)NC(=O)[C@H](CSSC[C@H](NC(=O)[C@H](CCCNC(=N)N)NC(=O)[C@H](CO)NC(=O)[C@H](CCCCN)NC(=O)[C@@H]4CCCN4C(=O)[C@H]([C@@H](C)CC)NC(=O)[C@H]([C@@H](C)O)NC(=O)[C@H](CC(=O)O)NC(=O)[C@H]([C@@H](C)CC)NC(=O)[C@@H](NC(=O)[C@H](CO)NC(=O)[C@@H](N)CCCNC(=N)N)CSSC[C@@H](C(=O)N[C@@H](C)C(N)=O)NC(=O)[C@H]([C@@H](C)O)NC(=O)CNC3=O)C(=O)N[C@@H]([C@@H](C)O)C(=O)N[C@@H](C)C(=O)N[C@@H](Cc3ccccc3)C(=O)N[C@@H](CCCCN)C(=O)N2)NC(=O)[C@H](Cc2ccccc2)NC(=O)[C@H](CO)NC(=O)[C@H](CC(C)C)NC(=O)[C@H](CCCNC(=N)N)NC(=O)[C@H](Cc2ccc(O)cc2)NC(=O)[C@H](CCCCN)NC1=O` [[Lys16,Nva21]ShK-Ala-amide], the IC50 [1] is reported as 0.431 nM, the IC50 (hKv1.3) is reported as 0.08 nM and the IC50 [2, 3] is reported as 1.46 nM.
With `CCCC[C@@H]1NC(=O)[C@H](CO)NC(=O)[C@H](Cc2c[nH]cn2)NC(=O)[C@H](CCCCN)NC(=O)[C@@H]2CSSC[C@@H]3NC(=O)[C@H]([C@@H](C)O)NC(=O)[C@H](CCCCN)NC(=O)[C@H](CCCNC(=N)N)NC(=O)[C@H](CSSC[C@H](NC(=O)[C@H](CCCNC(=N)N)NC(=O)[C@H](CO)NC(=O)[C@H](CCCCN)NC(=O)[C@@H]4CCCN4C(=O)[C@H]([C@@H](C)CC)NC(=O)[C@H]([C@@H](C)O)NC(=O)[C@H](CC(=O)O)NC(=O)[C@H]([C@@H](C)CC)NC(=O)[C@@H](NC(=O)[C@H](CO)NC(=O)[C@@H](N)CCCNC(=N)N)CSSC[C@@H](C(=O)O)NC(=O)[C@H]([C@@H](C)O)NC(=O)CNC3=O)C(=O)N[C@@H]([C@@H](C)O)C(=O)N[C@@H](C)C(=O)N[C@@H](Cc3ccccc3)C(=O)N[C@@H](CCCCN)C(=O)N2)NC(=O)[C@H](Cc2ccccc2)NC(=O)[C@H](CO)NC(=O)[C@H](CC(C)C)NC(=O)[C@H](CCCNC(=N)N)NC(=O)[C@H](Cc2ccc(O)cc2)NC(=O)[C@H](CCCCN)NC1=O` [[Lys16,N1e21]ShK] the IC50 [1] was 0.249 nM, the IC50 (hKv1.3) was 0.13 nM and the IC50 [2, 3] was 0.848 nM.
`CC[C@H](C)[C@@H]1NC(=O)[C@@H](NC(=O)[C@H](CO)NC(=O)[C@@H](N)CCCNC(=N)N)CSSC[C@@H](C(=O)O)NC(=O)[C@H]([C@@H](C)O)NC(=O)CNC(=O)[C@@H]2CSSC[C@@H]3NC(=O)[C@H](CCC(N)=O)NC(=O)[C@H](Cc4ccccc4)NC(=O)[C@H](C)NC(=O)[C@H]([C@@H](C)O)NC(=O)[C@H](CSSC[C@H](NC(=O)[C@H](Cc4ccccc4)NC(=O)[C@H](CO)NC(=O)[C@H](CC(C)C)NC(=O)[C@H](CCCNC(=N)N)NC(=O)[C@H](Cc4ccc(O)cc4)NC(=O)[C@H](CCCCN)NC(=O)[C@H](CCSC)NC(=O)[C@H](CO)NC(=O)[C@H](Cc4c[nH]cn4)NC(=O)[C@H](CCCCN)NC3=O)C(=O)N[C@@H](CCCNC(=N)N)C(=O)N[C@@H](CCCCN)C(=O)N[C@@H]([C@@H](C)O)C(=O)N2)NC(=O)[C@H](CCCNC(=N)N)NC(=O)[C@H](CO)NC(=O)[C@H](CCCCN)NC(=O)[C@@H]2CCCN2C(=O)[C@H](CCCNC(=N)N)NC(=O)[C@H]([C@@H](C)O)NC(=O)[C@H](CC(=O)O)NC1=O` [[Arg7]ShK] showed an IC50 [1] of 6.39 nM, an IC50 (hKv1.3) of 0.301 nM and an IC50 [2, 3] of 11.1 nM.
